Test results from ChEMBL document CHEMBL1909046, “DrugMatrix in vitro pharmacology data”.

Legend:
Interstitial collagenase = molecular target: T1, Interstitial collagenase (Homo sapiens, UniProt P03956); assay: biochemical; format: tissue-based, Rheumatoid synovial fibroblasts;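 note: MMP-1 enzyme inhibition assay using a peptide substrate; in other assays of this panel Not Active means under 50% inhibition at 10 µM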
T1 sequence (P03956 whole entry): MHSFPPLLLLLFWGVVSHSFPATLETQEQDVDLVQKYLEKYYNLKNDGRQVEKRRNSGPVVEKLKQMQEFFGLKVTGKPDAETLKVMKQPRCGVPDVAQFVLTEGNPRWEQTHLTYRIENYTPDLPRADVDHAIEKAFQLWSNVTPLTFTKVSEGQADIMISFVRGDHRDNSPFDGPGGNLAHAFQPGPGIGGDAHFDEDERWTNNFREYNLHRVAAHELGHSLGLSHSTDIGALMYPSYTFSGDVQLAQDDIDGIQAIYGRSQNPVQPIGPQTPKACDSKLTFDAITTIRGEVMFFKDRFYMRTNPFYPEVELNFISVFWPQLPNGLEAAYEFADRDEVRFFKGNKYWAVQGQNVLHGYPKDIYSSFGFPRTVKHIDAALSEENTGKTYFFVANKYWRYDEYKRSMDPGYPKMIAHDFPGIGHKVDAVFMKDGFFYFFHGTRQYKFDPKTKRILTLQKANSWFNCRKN

Carbonic anhydrase 2 = Carbonic anhydrase 2 (Homo sapiens, UniProt P00918); assay: DRUGMATRIX: Carbonic Anhydrase II enzyme inhibition (substrate: 4-Nitrophenyl acetate (4-NPA)); format: tissue-based; conditions: erythrocyte; Not Active = under 50% inhibition at 10 µM
[1] = molecular target: Vascular endothelial growth factor receptor 1 (Homo sapiens, UniProt P17948); assay: biochemical; format: cell-based, HUVEC; conditions: huvec; note: in other assays of this panel Not Active means under 50% inhibition at 10 µM
[2] = DRUGMATRIX: Glutamate, NMDA, Phencyclidine radioligand binding (ligand: [3H] TCP); format: cell membranes, Rattus norvegicus, Wistar, Cerebral cortex, Membrane; conditions: Not Active = under 50% inhibition at 10 µM
Calcitonin receptor = molecular target: T2, Calcitonin receptor (Homo sapiens, UniProt P30988); format: cell membranes, Membrane; conditions: t47d; note: in other assays of this panel Not Active means under 50% inhibition at 10 µM
T2 sequence (P30988 whole entry): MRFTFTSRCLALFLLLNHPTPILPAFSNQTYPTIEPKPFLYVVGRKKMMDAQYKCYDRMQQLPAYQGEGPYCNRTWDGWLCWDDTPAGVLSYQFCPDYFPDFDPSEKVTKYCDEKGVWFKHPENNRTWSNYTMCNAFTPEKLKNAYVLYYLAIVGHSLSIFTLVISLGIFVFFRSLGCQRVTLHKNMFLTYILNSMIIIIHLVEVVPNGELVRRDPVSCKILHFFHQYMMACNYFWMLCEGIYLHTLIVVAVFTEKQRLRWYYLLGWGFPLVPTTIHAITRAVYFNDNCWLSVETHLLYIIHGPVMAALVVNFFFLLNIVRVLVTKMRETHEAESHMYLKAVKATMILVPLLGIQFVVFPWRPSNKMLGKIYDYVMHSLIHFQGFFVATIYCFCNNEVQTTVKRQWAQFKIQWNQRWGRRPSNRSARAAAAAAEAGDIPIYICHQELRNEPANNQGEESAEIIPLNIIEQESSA

[3] = molecular target: C-C chemokine receptor type 2 (Homo sapiens, UniProt P41597); format: cell membranes, Membrane; conditions: cho-k1; note: in other assays of this panel Not Active means under 50% inhibition at 10 µM
Nitric oxide synthase 1 = Nitric oxide synthase 1 (Rattus norvegicus, UniProt P29476); format: tissue-based, Cerebellum; note: in other assays of this panel Not Active means under 50% inhibition at 10 µM
Estrogen receptor = molecular target: T3, Estrogen receptor (Homo sapiens, UniProt P03372); conditions: sf9; note: in other assays of this panel Not Active means under 50% inhibition at 10 µM
T3 sequence (P03372 whole entry): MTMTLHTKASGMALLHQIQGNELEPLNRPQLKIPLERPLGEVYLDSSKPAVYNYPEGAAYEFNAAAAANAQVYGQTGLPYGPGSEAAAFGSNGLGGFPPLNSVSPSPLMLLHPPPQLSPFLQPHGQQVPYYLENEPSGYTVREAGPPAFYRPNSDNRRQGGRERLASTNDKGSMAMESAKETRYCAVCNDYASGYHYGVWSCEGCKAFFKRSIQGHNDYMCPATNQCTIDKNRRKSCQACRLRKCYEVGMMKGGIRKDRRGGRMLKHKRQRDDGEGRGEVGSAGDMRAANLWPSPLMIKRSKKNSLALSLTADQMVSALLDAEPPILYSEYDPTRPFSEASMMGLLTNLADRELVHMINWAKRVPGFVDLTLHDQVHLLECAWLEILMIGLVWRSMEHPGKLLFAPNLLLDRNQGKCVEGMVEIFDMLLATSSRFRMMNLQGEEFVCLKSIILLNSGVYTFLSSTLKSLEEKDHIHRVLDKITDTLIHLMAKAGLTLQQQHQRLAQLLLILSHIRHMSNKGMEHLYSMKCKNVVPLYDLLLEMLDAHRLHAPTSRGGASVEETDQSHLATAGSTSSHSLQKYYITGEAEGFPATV

Vascular endothelial growth factor receptor 1, sequence (P17948 whole entry): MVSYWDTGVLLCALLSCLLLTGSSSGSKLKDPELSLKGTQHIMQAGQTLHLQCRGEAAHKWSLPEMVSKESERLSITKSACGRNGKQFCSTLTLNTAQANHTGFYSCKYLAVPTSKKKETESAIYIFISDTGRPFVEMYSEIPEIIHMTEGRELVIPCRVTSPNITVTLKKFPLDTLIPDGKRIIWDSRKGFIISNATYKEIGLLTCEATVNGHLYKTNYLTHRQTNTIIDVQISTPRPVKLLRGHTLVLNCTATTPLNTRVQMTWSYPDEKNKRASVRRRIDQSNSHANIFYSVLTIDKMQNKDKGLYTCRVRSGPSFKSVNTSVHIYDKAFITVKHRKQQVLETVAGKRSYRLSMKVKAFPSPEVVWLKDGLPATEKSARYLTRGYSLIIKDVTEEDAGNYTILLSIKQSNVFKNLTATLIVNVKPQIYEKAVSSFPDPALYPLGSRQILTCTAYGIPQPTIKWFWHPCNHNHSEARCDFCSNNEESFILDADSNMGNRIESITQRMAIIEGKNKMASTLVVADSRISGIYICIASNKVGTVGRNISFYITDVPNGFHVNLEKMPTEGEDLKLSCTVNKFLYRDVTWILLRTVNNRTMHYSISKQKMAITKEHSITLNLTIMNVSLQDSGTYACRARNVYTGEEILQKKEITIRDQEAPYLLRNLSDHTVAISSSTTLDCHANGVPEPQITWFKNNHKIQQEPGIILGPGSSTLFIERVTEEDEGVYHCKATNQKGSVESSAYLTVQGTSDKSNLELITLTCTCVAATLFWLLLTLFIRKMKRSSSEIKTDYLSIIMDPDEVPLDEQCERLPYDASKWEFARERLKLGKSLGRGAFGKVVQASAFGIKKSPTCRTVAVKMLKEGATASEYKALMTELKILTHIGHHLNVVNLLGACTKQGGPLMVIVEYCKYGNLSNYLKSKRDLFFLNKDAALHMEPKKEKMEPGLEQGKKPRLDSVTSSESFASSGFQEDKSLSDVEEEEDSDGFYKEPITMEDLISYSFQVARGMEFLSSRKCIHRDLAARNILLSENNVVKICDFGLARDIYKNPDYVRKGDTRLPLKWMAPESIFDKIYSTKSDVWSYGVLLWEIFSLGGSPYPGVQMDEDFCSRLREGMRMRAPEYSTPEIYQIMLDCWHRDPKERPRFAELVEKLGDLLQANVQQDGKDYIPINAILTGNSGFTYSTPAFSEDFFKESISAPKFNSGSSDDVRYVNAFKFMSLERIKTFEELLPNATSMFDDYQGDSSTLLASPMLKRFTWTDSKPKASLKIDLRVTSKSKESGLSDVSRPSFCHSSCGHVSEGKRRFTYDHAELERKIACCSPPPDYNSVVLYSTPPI
Nitric oxide synthase 1, sequence (P29476 whole entry): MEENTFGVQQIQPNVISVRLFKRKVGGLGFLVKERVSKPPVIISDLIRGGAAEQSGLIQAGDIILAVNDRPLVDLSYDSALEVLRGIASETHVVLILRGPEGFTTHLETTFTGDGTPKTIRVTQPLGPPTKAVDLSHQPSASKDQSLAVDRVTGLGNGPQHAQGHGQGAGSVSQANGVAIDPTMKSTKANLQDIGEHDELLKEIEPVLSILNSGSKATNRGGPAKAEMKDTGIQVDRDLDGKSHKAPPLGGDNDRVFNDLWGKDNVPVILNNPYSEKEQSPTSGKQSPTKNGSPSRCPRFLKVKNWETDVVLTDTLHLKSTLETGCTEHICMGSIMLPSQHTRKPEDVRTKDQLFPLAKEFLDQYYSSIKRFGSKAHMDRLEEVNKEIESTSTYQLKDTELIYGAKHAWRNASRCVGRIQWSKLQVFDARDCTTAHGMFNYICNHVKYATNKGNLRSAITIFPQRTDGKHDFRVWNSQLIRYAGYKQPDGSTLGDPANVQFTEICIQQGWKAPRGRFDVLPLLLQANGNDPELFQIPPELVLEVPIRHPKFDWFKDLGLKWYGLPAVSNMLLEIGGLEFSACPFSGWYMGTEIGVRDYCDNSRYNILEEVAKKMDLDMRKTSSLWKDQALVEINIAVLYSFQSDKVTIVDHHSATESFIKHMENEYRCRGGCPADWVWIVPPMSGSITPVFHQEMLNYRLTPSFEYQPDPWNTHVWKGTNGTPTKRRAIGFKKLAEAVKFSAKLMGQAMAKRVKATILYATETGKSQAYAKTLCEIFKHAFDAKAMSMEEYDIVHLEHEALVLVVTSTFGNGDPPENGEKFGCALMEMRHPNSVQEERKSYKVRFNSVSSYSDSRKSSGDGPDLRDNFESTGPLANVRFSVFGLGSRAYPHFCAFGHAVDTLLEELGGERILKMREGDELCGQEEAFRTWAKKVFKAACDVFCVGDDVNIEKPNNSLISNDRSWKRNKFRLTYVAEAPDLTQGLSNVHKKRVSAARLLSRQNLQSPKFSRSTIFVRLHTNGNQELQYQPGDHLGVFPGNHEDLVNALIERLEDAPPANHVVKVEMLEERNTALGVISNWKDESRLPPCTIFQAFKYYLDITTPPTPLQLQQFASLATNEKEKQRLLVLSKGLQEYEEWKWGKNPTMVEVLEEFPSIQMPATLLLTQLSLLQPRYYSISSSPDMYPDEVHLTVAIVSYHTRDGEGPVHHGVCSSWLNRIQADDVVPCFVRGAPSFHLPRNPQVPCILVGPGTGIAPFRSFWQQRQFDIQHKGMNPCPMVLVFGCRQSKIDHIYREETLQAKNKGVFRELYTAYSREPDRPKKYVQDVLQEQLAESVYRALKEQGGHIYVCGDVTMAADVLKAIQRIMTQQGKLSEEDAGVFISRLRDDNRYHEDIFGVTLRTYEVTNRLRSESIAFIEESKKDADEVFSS
C-C chemokine receptor type 2, sequence (P41597 whole entry): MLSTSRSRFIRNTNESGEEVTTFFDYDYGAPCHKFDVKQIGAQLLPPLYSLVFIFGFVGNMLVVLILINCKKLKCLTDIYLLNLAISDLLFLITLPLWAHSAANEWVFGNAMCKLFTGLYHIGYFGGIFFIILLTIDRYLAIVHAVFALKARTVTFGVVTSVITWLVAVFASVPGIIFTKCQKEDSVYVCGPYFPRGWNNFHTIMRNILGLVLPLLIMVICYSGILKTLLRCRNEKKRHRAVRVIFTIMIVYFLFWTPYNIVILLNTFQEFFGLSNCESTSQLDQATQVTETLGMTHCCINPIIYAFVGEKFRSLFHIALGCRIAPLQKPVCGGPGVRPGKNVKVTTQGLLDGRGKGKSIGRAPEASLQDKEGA

Compound | IC50 (Interstitial collagenase) | IC50 (Carbonic anhydrase 2) | IC50 [1] | IC50 [2] | Ki [2] | IC50 (Calcitonin receptor) | IC50 [3] | IC50 (Nitric oxide synthase 1) | IC50 (Estrogen receptor) | IC50 (Interstitial collagenase; read-out: IC50) [µM] | Ki (Interstitial collagenase) | Ki (Carbonic anhydrase 2) | Ki [1] | Ki (Calcitonin receptor) | Ki [3] | Ki (Nitric oxide synthase 1) | Ki (Estrogen receptor)
CC(C)(C)NC(=O)[C@H]1CC[C@H]2[C@@H]3CC[C@H]4NC(=O)C=C[C@]4(C)[C@H]3CC[C@]12C [FINASTERIDE] | Not Active | Not Active | Not Active | Not Active | Not Active | Not Active | Not Active | Not Active | Not Active | – | – | – | – | – | – | – | –
COc1ccc2c3c1O[C@H]1C[C@@H](O)C=C[C@@]31CCN(C)C2 [GALANTAMINE] | Not Active | Not Active | Not Active | Not Active | Not Active | Not Active | Not Active | Not Active | Not Active | – | – | – | – | – | – | – | –
Nc1ccn([C@@H]2O[C@H](CO)[C@@H](O)C2(F)F)c(=O)n1 [GEMCITABINE] | Not Active | Not Active | Not Active | Not Active | Not Active | Not Active | Not Active | Not Active | Not Active | – | – | – | – | – | – | – | –
COC1=C(OC)C(=O)C(CCCCCCCCCCO)=C(C)C1=O [IDEBENONE] | Not Active | Not Active | Not Active | Not Active | Not Active | Not Active | Not Active | Not Active | Not Active | – | – | – | – | – | – | – | –
CC(C)NNC(=O)c1ccncc1 [IPRONIAZID] | Not Active | Not Active | Not Active | Not Active | Not Active | Not Active | Not Active | Not Active | Not Active | – | – | – | – | – | – | – | –
O=c1cc(N2CCOCC2)oc2c(-c3ccccc3)cccc12 [LY-294002] | Not Active | Not Active | Not Active | Not Active | Not Active | Not Active | Not Active | Not Active | Not Active | – | – | – | – | – | – | – | –
COc1ccc2[nH]cc(CCNC(C)=O)c2c1 [MELATONIN] | Not Active | Not Active | Not Active | Not Active | Not Active | Not Active | Not Active | Not Active | Not Active | – | – | – | – | – | – | – | –
NC(=O)C[S+]([O-])C(c1ccccc1)c1ccccc1 (configuration not stated) [MODAFINIL] | Not Active | Not Active | Not Active | Not Active | Not Active | Not Active | Not Active | Not Active | Not Active | – | – | – | – | – | – | – | –
CCN(CC)CCOCCC1=CCC2CC1C2(C)C (configuration not stated) [MYRTECAINE] | Not Active | Not Active | Not Active | Not Active | Not Active | Not Active | Not Active | Not Active | Not Active | – | – | – | – | – | – | – | –
O=C(O)c1cccnc1Nc1cccc(C(F)(F)F)c1 [NIFLUMIC ACID] | Not Active | Not Active | Not Active | Not Active | Not Active | Not Active | Not Active | Not Active | Not Active | – | – | – | – | – | – | – | –
C#CC1(O)CC[C@H]2[C@@H]3CCC4=CC(=O)CC[C@@H]4[C@H]3CC[C@@]21CC (some centres not stated) [NORGESTREL] | Not Active | Not Active | Not Active | Not Active | Not Active | Not Active | Not Active | Not Active | Not Active | – | – | – | – | – | – | – | –
COC(=O)Nc1nc2ccc([S+]([O-])c3ccccc3)cc2[nH]1 (configuration not stated) [OXFENDAZOLE] | Not Active | Not Active | Not Active | Not Active | Not Active | Not Active | Not Active | Not Active | Not Active | – | – | – | – | – | – | – | –
CC(=O)O[C@H]1C(=O)[C@@]2(C)[C@H]([C@H](OC(=O)c3ccccc3)[C@]3(O)C[C@H](OC(=O)[C@H](O)[C@@H](NC(=O)c4ccccc4)c4ccccc4)C(C)=C1C3(C)C)[C@]1(OC(C)=O)CO[C@@H]1C[C@@H]2O [PACLITAXEL] | Not Active | Not Active | Not Active | Not Active | Not Active | Not Active | Not Active | Not Active | Not Active | – | – | – | – | – | – | – | –
C[n+]1ccc(-c2cc[n+](C)cc2)cc1.[Cl-].[Cl-] [PARAQUAT DICHLORIDE] | Not Active | Not Active | Not Active | Not Active | Not Active | Not Active | Not Active | Not Active | Not Active | – | – | – | – | – | – | – | –
C[n+]1ccccc1/C=N/O.[Cl-] [PRALIDOXIME CHLORIDE] | Not Active | Not Active | Not Active | Not Active | Not Active | Not Active | Not Active | Not Active | Not Active | – | – | – | – | – | – | – | –
COc1cc2nc(N3CCN(C(=O)c4ccco4)CC3)nc(N)c2cc1OC [PRAZOSIN] | – | Not Active | Not Active | Not Active | Not Active | Not Active | Not Active | Not Active | Not Active | 4.04 | – | – | – | – | – | – | –
C[C@]12C=CC(=O)C=C1CC[C@@H]1[C@@H]2[C@@H](O)C[C@@]2(C)[C@H]1CC[C@]2(O)C(=O)CO [PREDNISOLONE] | Not Active | Not Active | Not Active | Not Active | Not Active | Not Active | Not Active | Not Active | Not Active | – | – | – | – | – | – | – | –
CC(=O)[C@H]1[C@H](C#N)C[C@H]2[C@@H]3CC=C4C[C@@H](O)CC[C@]4(C)[C@H]3CC[C@@]21C [PREGNENOLONE CARBONITRILE] | Not Active | Not Active | Not Active | Not Active | Not Active | Not Active | Not Active | Not Active | Not Active | – | – | – | – | – | – | – | –
CC(C)c1cccc(C(C)C)c1O [PROPOFOL] | Not Active | Not Active | Not Active | Not Active | Not Active | Not Active | Not Active | Not Active | Not Active | – | – | – | – | – | – | – | –
Oc1cccc(O)c1O [PYROGALLOL] | Not Active | Not Active | Not Active | Not Active | Not Active | Not Active | Not Active | Not Active | Not Active | – | – | – | – | – | – | – | –
AURANOFIN | Not Active | Not Active | Not Active | Not Active | Not Active | Not Active | Not Active | Not Active | Not Active | – | Not Active | Not Active | Not Active | Not Active | Not Active | Not Active | Not Active
GADOPENTETATE DIMEGLUMINE | Not Active | Not Active | Not Active | Not Active | Not Active | Not Active | Not Active | Not Active | Not Active | – | Not Active | Not Active | Not Active | Not Active | Not Active | Not Active | Not Active
